# Literature values as cited in publication PMC6270209, “Synthesis, Antimycobacterial Activity and In Vitro Cytotoxicity of 5-Chloro-N-phenylpyrazine-2-carboxamides” (Molecules, 2013).
# Test system: M. tbc strains (PZA-sensitive, PZA-resistant)
# Set-up: method as in PMID 9527809
# Details: cited from earlier work
smiles,measurement,setting,value
"NC(=O)c1cnc(Cl)cn1 [Compound 5-Cl-PZA, 5-chloropyrazine-2-carboxamide, reference compound]",MIC for PZA-resistant strains,PZA-resistant strains,8 to 64 µg/mL
same,MIC for PZA-sensitive M. tbc strains,PZA-sensitive strains,8 to 32 µg/mL
